Tests used:
Experiment in all cases: relative viability (nuclei count vs DMSO), 5 days (fraction); higher = more cells survive
SW 1573 = test system: SW 1573
How it was run: (§1)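 Lung cancer cell lines were pin-tool dosed in 1536-well plates on the day after seeding, with either a lone drug or a fixed anchor-drug dose plus five library-drug doses (not always all listed) in √10 steps. Nuclei were counted on 4× images after 5 days. Relative viability is the ratio of treated-well to vehicle-well nuclei counts, with each value a median of duplicate plates.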

NCI-H647 = test system: NCI-H647
How it was run: as §1

NCI-H520 = test system: NCI-H520
How it was run: as §1

HOP-62 = test system: HOP-62
How it was run: as §1

NCI-H441 = test system: NCI-H441
How it was run: as §1

LOU-NH91 = test system: LOU-NH91
How it was run: as §1

HCC-44 = test system: HCC-44
How it was run: as §1

NCI-H1437 = test system: NCI-H1437
How it was run: as §1

NCI-H2126 = test system: NCI-H2126
How it was run: as §1

NCI-H1793 = test system: NCI-H1793
How it was run: as §1

ChaGo-K-1 = test system: ChaGo-K-1
How it was run: as §1

NCI-H2170 = test system: NCI-H2170
How it was run: as §1

NCI-H2023 = test system: NCI-H2023
How it was run: as §1

NCI-H460 = test system: NCI-H460
How it was run: as §1

NCI-H2009 = test system: NCI-H2009
How it was run: as §1

NCI-H2405 = test system: NCI-H2405
How it was run: as §1

PC-14 = test system: PC-14
How it was run: as §1

NCI-H23 = test system: NCI-H23
How it was run: as §1

EPLC-272H = test system: EPLC-272H
How it was run: as §1

EMC-BAC-2 = test system: EMC-BAC-2
How it was run: as §1

NCI-H2347 = test system: NCI-H2347
How it was run: as §1

NCI-H727 = test system: NCI-H727
How it was run: as §1

SW 900 = test system: SW 900
How it was run: as §1

LCLC-103H = test system: LCLC-103H
How it was run: as §1

NCI-H650 = test system: NCI-H650
How it was run: as §1

CCCCCCCCCCCC1=C(O)C(=O)C=C(O)C1=O [Embelin] + CC1(C)CCC(c2ccc(Cl)cc2)=C(CN2CCN(c3ccc(C(=O)NS(=O)(=O)c4ccc(N[C@H](CCN5CCOCC5)CSc5ccccc5)c(S(=O)(=O)C(F)(F)F)c4)cc3)CC2)C1 [Navitoclax] (partner 0.5 µM)
relative viability (SW 1573; first compound 0.08 µM): 0.973
relative viability (SW 1573; first compound 0.8 µM): 0.976
relative viability (SW 1573; first compound 2.53 µM): 1.02
relative viability (SW 1573; first compound 8 µM): 1.02
relative viability (NCI-H647; first compound 0.08 µM): 1.25
relative viability (NCI-H647; first compound 0.8 µM): 1.35
relative viability (NCI-H647; first compound 2.53 µM): 1.21
relative viability (NCI-H647; first compound 8 µM): 1.2
relative viability (NCI-H520; first compound 0.08 µM): 1.24
relative viability (NCI-H520; first compound 0.8 µM): 1.26
relative viability (NCI-H520; first compound 2.53 µM): 1.07
relative viability (NCI-H520; first compound 8 µM): 1.04
relative viability (HOP-62; first compound 0.08 µM): 0.882
relative viability (HOP-62; first compound 0.8 µM): 1.16
relative viability (HOP-62; first compound 2.53 µM): 1.09
relative viability (HOP-62; first compound 8 µM): 1.22
relative viability (NCI-H441; first compound 0.08 µM): 0.52
relative viability (NCI-H441; first compound 2.53 µM): 0.56
relative viability (NCI-H441; first compound 8 µM): 0.667
relative viability (LOU-NH91; first compound 0.08 µM): 0.77
relative viability (LOU-NH91; first compound 0.8 µM): 1.02
relative viability (LOU-NH91; first compound 2.53 µM): 0.837
relative viability (LOU-NH91; first compound 8 µM): 0.637
relative viability (HCC-44; first compound 0.08 µM): 0.903
relative viability (HCC-44; first compound 0.8 µM): 0.911
relative viability (HCC-44; first compound 2.53 µM): 1.07
relative viability (HCC-44; first compound 8 µM): 0.923
relative viability (NCI-H1437; first compound 0.08 µM): 1.07
relative viability (NCI-H1437; first compound 0.8 µM): 1.14
relative viability (NCI-H1437; first compound 2.53 µM): 1.11
relative viability (NCI-H1437; first compound 8 µM): 0.707
relative viability (NCI-H2126; first compound 0.08 µM): 0.879
relative viability (NCI-H2126; first compound 0.8 µM): 0.801
relative viability (NCI-H2126; first compound 2.53 µM): 0.848
relative viability (NCI-H2126; first compound 8 µM): 0.869
relative viability (NCI-H1793; first compound 0.08 µM): 0.461
relative viability (NCI-H1793; first compound 0.8 µM): 0.46
relative viability (NCI-H1793; first compound 2.53 µM): 0.498
relative viability (NCI-H1793; first compound 8 µM): 0.369
relative viability (ChaGo-K-1; first compound 0.08 µM): 1.17
relative viability (ChaGo-K-1; first compound 0.8 µM): 1.54
relative viability (ChaGo-K-1; first compound 2.53 µM): 0.956
relative viability (ChaGo-K-1; first compound 8 µM): 0.777
relative viability (NCI-H2170; first compound 0.08 µM): 0.641
relative viability (NCI-H2170; first compound 0.8 µM): 0.678
relative viability (NCI-H2170; first compound 2.53 µM): 0.698
relative viability (NCI-H2170; first compound 8 µM): 0.547
relative viability (NCI-H2023; first compound 0.08 µM): 1.05
relative viability (NCI-H2023; first compound 0.8 µM): 1.05
relative viability (NCI-H2023; first compound 2.53 µM): 1.02
relative viability (NCI-H2023; first compound 8 µM): 0.689
relative viability (NCI-H460; first compound 0.08 µM): 1.07
relative viability (NCI-H460; first compound 0.8 µM): 1.26
relative viability (NCI-H460; first compound 2.53 µM): 1.4
relative viability (NCI-H460; first compound 8 µM): 1.08
relative viability (NCI-H2009; first compound 0.08 µM): 1.23
relative viability (NCI-H2009; first compound 0.8 µM): 1.24
relative viability (NCI-H2009; first compound 2.53 µM): 1.23
relative viability (NCI-H2009; first compound 8 µM): 1.08
relative viability (NCI-H2405; first compound 0.08 µM): 0.986
relative viability (NCI-H2405; first compound 0.8 µM): 1.41
relative viability (NCI-H2405; first compound 2.53 µM): 0.875
relative viability (NCI-H2405; first compound 8 µM): 0.906
relative viability (PC-14; first compound 0.08 µM): 0.968
relative viability (PC-14; first compound 0.8 µM): 1.05
relative viability (PC-14; first compound 2.53 µM): 0.997
relative viability (PC-14; first compound 8 µM): 1.06
relative viability (NCI-H23; first compound 0.08 µM): 0.848
relative viability (NCI-H23; first compound 0.8 µM): 0.904
relative viability (NCI-H23; first compound 2.53 µM): 0.884
relative viability (NCI-H23; first compound 8 µM): 0.74
relative viability (EPLC-272H; first compound 0.08 µM): 1.07
relative viability (EPLC-272H; first compound 0.8 µM): 1.34
relative viability (EPLC-272H; first compound 2.53 µM): 1.21
relative viability (EPLC-272H; first compound 8 µM): 1.11
relative viability (EMC-BAC-2; first compound 0.08 µM): 1.17
relative viability (EMC-BAC-2; first compound 0.8 µM): 1.17
relative viability (EMC-BAC-2; first compound 2.53 µM): 1.33
relative viability (EMC-BAC-2; first compound 8 µM): 1.3
relative viability (NCI-H2347; first compound 0.08 µM): 0.746
relative viability (NCI-H2347; first compound 0.8 µM): 0.95
relative viability (NCI-H2347; first compound 2.53 µM): 1.01
relative viability (NCI-H2347; first compound 8 µM): 0.811
relative viability (NCI-H727; first compound 0.08 µM): 0.4
relative viability (NCI-H727; first compound 0.8 µM): 0.537
relative viability (NCI-H727; first compound 2.53 µM): 0.435
relative viability (NCI-H727; first compound 8 µM): 0.392

CCCCCCCCCCCC1=C(O)C(=O)C=C(O)C1=O [Embelin] + NC(=O)Nc1cc(-c2cccc(F)c2)sc1C(=O)N[C@H]1CCCNC1 [AZD7762] (partner 0.2 µM)
relative viability (NCI-H647; first compound 0.08 µM): 0.379
relative viability (NCI-H647; first compound 0.8 µM): 0.674
relative viability (NCI-H647; first compound 2.53 µM): 0.365
relative viability (NCI-H647; first compound 8 µM): 0.309
relative viability (SW 900; first compound 0.08 µM): 0.556
relative viability (SW 900; first compound 0.8 µM): 0.624
relative viability (SW 900; first compound 2.53 µM): 0.502
relative viability (SW 900; first compound 8 µM): 0.628
relative viability (HOP-62; first compound 0.08 µM): 0.384
relative viability (HOP-62; first compound 0.8 µM): 0.568
relative viability (HOP-62; first compound 2.53 µM): 0.734
relative viability (HOP-62; first compound 8 µM): 0.363
relative viability (NCI-H441; first compound 0.08 µM): 1.09
relative viability (NCI-H441; first compound 0.8 µM): 1.24
relative viability (NCI-H441; first compound 2.53 µM): 1.18
relative viability (NCI-H441; first compound 8 µM): 1.36
relative viability (LOU-NH91; first compound 0.08 µM): 0.795
relative viability (LOU-NH91; first compound 0.8 µM): 0.932
relative viability (LOU-NH91; first compound 2.53 µM): 0.779
relative viability (LOU-NH91; first compound 8 µM): 0.729
relative viability (HCC-44; first compound 0.08 µM): 1.07
relative viability (HCC-44; first compound 0.8 µM): 0.994
relative viability (HCC-44; first compound 2.53 µM): 0.999
relative viability (HCC-44; first compound 8 µM): 1.11
relative viability (NCI-H1437; first compound 0.08 µM): 1.15
relative viability (NCI-H1437; first compound 0.8 µM): 1.16
relative viability (NCI-H1437; first compound 2.53 µM): 1.15
relative viability (NCI-H1437; first compound 8 µM): 1.2
relative viability (NCI-H2126; first compound 0.08 µM): 0.936
relative viability (NCI-H2126; first compound 0.8 µM): 1.08
relative viability (NCI-H2126; first compound 2.53 µM): 1.12
relative viability (NCI-H2126; first compound 8 µM): 1
relative viability (NCI-H1793; first compound 0.08 µM): 0.635
relative viability (NCI-H1793; first compound 0.8 µM): 0.927
relative viability (NCI-H1793; first compound 2.53 µM): 0.472
relative viability (NCI-H1793; first compound 8 µM): 0.408
relative viability (ChaGo-K-1; first compound 0.08 µM): 0.861
relative viability (ChaGo-K-1; first compound 0.8 µM): 0.922
relative viability (ChaGo-K-1; first compound 2.53 µM): 0.922
relative viability (ChaGo-K-1; first compound 8 µM): 0.874
relative viability (NCI-H2170; first compound 0.08 µM): 0.906
relative viability (NCI-H2170; first compound 0.8 µM): 0.958
relative viability (NCI-H2170; first compound 2.53 µM): 1.06
relative viability (NCI-H2170; first compound 8 µM): 0.914
relative viability (LCLC-103H; first compound 0.08 µM): 0.79
relative viability (LCLC-103H; first compound 0.8 µM): 0.866
relative viability (LCLC-103H; first compound 2.53 µM): 0.886
relative viability (LCLC-103H; first compound 8 µM): 0.684
relative viability (NCI-H460; first compound 0.08 µM): 0.658
relative viability (NCI-H460; first compound 0.8 µM): 0.717
relative viability (NCI-H460; first compound 2.53 µM): 0.585
relative viability (NCI-H460; first compound 8 µM): 0.378
relative viability (NCI-H650; first compound 0.08 µM): 0.889
relative viability (NCI-H650; first compound 0.8 µM): 1.03
relative viability (NCI-H650; first compound 2.53 µM): 1.01
relative viability (NCI-H650; first compound 8 µM): 1.27
relative viability (NCI-H2405; first compound 0.08 µM): 0.696
relative viability (NCI-H2405; first compound 0.8 µM): 0.838
relative viability (NCI-H2405; first compound 2.53 µM): 0.876
relative viability (NCI-H2405; first compound 8 µM): 0.716
relative viability (PC-14; first compound 0.08 µM): 0.339
relative viability (PC-14; first compound 0.8 µM): 0.419
relative viability (PC-14; first compound 2.53 µM): 0.345
relative viability (PC-14; first compound 8 µM): 0.258
relative viability (NCI-H23; first compound 0.08 µM): 0.27
relative viability (NCI-H23; first compound 0.8 µM): 0.297
relative viability (NCI-H23; first compound 2.53 µM): 0.3
relative viability (NCI-H23; first compound 8 µM): 0.248
relative viability (EPLC-272H; first compound 0.08 µM): 0.181
relative viability (EPLC-272H; first compound 0.8 µM): 0.296
relative viability (EPLC-272H; first compound 2.53 µM): 0.21
relative viability (EPLC-272H; first compound 8 µM): 0.188
relative viability (EMC-BAC-2; first compound 0.08 µM): 1.12
relative viability (EMC-BAC-2; first compound 0.8 µM): 1.22
relative viability (EMC-BAC-2; first compound 2.53 µM): 1.13
relative viability (EMC-BAC-2; first compound 8 µM): 1.06
relative viability (NCI-H2347; first compound 0.08 µM): 0.841
relative viability (NCI-H2347; first compound 0.8 µM): 0.85
relative viability (NCI-H2347; first compound 2.53 µM): 0.722
relative viability (NCI-H2347; first compound 8 µM): 0.67
relative viability (NCI-H727; first compound 0.08 µM): 0.533
relative viability (NCI-H727; first compound 0.8 µM): 0.503
relative viability (NCI-H727; first compound 2.53 µM): 0.647
relative viability (NCI-H727; first compound 8 µM): 0.582
